Measurements: paper PMC7830597, “Derivatives of Tenuazonic Acid as Potential New Multi-Target Anti-Alzheimer’s Disease Agents” (Biomolecules, 2021)

Key:
[1] = system: SH-SY5Y human neuroblastoma cells; experiment: Neuroprotection against Aβ1-42-induced toxicity, MTT; type: cell-based; details: Aβ1-42 2.5 μM 24 h; 1 h pre-incubation; compounds 1, 2 100 µM; 4 10 µM; 5 20 µM
Experimental: (§1) SH-SY5Y human neuroblastoma cells (ATCC-CRL-2266) were seeded in DMEM/F12 (Dulbecco’s Modified Eagle Medium/Ham’s F-12 Nutrient Mixture; Thermo Fisher Scientific) with 10% heat inactivated fetal bovine serum, 50 U/mL penicillin and 50 U/mL streptomycin under a humidified atmosphere with 95% relative humidity at 37 °C at a 0.16 × 10^6 cells/mL density. Stock solutions from tested compounds (1, 2, 4 and 5) were prepared in DMSO at a 25 mM concentration and stored at −20 °C until needed. In order to select the highest non-toxic concentration, a dose-response screening was performed, where SH-SY5Y cells were exposed to the compounds for 25 h. The selected concentrations for each compound were: 75 µM final concentration for 1 and 2; 10 µM final concentration for 4 and 20 µM final concentration for 5. […] For the neuroprotection assays, the selected compounds were added to the cell media 1 hour prior to the incubation with Aβ1-42 or L-ascorbic acid/ferrous sulphate. Aβ1-42 or L-ascorbic acid/ferrous sulphate treatment was maintained for another 24 h. Aβ1-42 was prepared as 276.9 µM stock in sterile water and administrated in the medium at a 2.5 µM final concentration. Ferrous sulphate was freshly prepared as 0.36 M stock in water and added to the medium at 2.5 mM final concentration. L-ascorbic acid was freshly prepared as 80 mM stock in water and added to the medium at 5 mM final concentration. Aβ1-42 was purchased from Bachem (Torrance, CA, USA) and ferrous sulphate and L-ascorbic acid from Sigma Chemical Co (St. Louis, MO, USA).
(§2) Cell viability was measured by using the MTT (3-(4,5-dimethylthiazol-2-yl)-2,5-diphenyl tetrazolium bromide) reduction assay. This test is based on the presence of succinate dehydrogenase enzyme in viable cells, that allows them to metabolize MTT into a formazan. After treatment, the medium was removed, and cells were washed with 1x PBS one time to remove dead cells. 200 µL of MTT solution (0.5 mg/mL) was added to each well and incubated for 2 h protected from light. Formazan precipitates were then dissolved in DMSO and absorbance measured at 570 nm. The ability to reduce MTT was expressed as a percentage of untreated control cells.
Overnight cultures were treated with Aβ1-42 peptide (2.5 μM) for 24 h in the absence or in the presence of the compounds. When compounds were present, a pre-incubation of 1 h preceded the Aβ1-42 treatment. Cellular viability was determined by employing the MTT reduction assay. […] (compounds: 1, 2–100 µM; 4–10 µM; 5–20 µM).

[2] = Radical scavenging activity, DPPH method; details: DPPH assay; mean ± SEM of 3 independent experiments
Experimental: Therefore, they were assayed for radical scavenging activity using the DPPH method.
The final volume of the assay was 3.5 mL, corrected with MeOH to obtain different concentrations of our compound in each assay. The control solution was composed of MeOH and DPPH [14]. After 30 min, at RT, protected from light, the absorbance was measured at 517 nm (Perkin Elmer Lambda 35 spectrophotometer equipped with a temperature programmer PTP 1þ1 Peltier System, using thermostated (T¼25.0 ± 0.1 °C) 1 cm path length cells), against a blank solution (MeOH). The assays were performed in triplicate, in which the EC50 was obtained through the graphical representation of the %AA vs. the inhibitor concentration.

Aβ1-42 = target: T1, Aβ1-42 (Homo sapiens, UniProt P05067); experiment: Inhibition of Cu2+-induced Aβ1-42 aggregation, thioflavin T fluorescence; type: biochemical; details: inhibitor 40 µM, copper 40 µM, read-out: Inhib. Aβ Aggreg. Cu2+-Induced
T1 construct: Amyloid β peptide (Aβ1-42) was purchased from GeneCust as a lyophilised powder; purchased GeneCust
T1 sequence (P05067 672-713 limits assumed): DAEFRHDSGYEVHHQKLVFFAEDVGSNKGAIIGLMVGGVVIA
Experimental: The anti-amyloidogenic activity of all the compounds was also evaluated in vitro, in the absence and in presence of Cu(II), by measuring the fluorescence emission of Thioflavin T (ThT). […] The Aβ self-aggregation inhibitory activity shown by all compounds is higher than that of parent compound TA, with the exception of compound 2 (probably due to solubility issues at the experimental conditions of the assays). The fact that the reference value previously reported by us for TA (50 ± 8%) was obtained for quite different conditions, including a much higher inhibitor concentration (100 μM instead of 40 μM) is noteworthy. […] This may be due to different electronic contributions between the ketone and the ester functions. Therefore, the ester derivatives seem to be better chelators compared to TA.
The spectrofluorimetric method, based on the fluorescence emission of thioflavin T (ThT), was used to study the Aβ1-42 aggregation inhibition. Firstly, Aβ1-42 was dissolved in HFIP (1,1,1,3,3,3-Hexafluoro-2-propanol) and kept overnight at room temperature in order to obtain a dry film. Then, the film was re-dissolved in CH3CN-Na2CO3 (300μM)/NaOH (250μM) (48.3/48.3/3.4 mL v/v/v) and then phosphate buffer (pH = 8) was added. The ligand solutions were prepared with MeOH (1mg/mL) and further with phosphate buffer. For the inhibition studies of copper-induced Aβ aggregation, a solution of CuCl2 240 μM was used. As a control, a solution of 30 μL of phosphate buffer and 30 μL of Aβ1-42 was used to observe the aggregation without any inhibition, while the ligand assay solutions were composed of 20 μL of phosphate buffer, 30 μL of Aβ1-42 and 10 μL of ligand. The Cu-induced aggregation studies were similarly conducted, adding 10 μL of CuCl2 to induce the fibril aggregation. Each experiment was composed of an assay and a blank sample, where the blank sample lacks Aβ1-42, to monitor the effect of the compounds on the fluorescence emission. The samples were left to incubate in a CERTOMAT WR water bath for 24 h at 37 °C with shaking. After 24 h, a Glycine-NaOH buffer (pH = 8.5) containing ThT were added to each sample in a microplate. The fluorescence signal was monitored at 446 nm (λexc) and 486 nm (λem) with a Varian Cary Eclipse fluorimeter. Amyloid β peptide (Aβ1-42) was purchased from GeneCust as a lyophilised powder and stored at −20 °C [12, 13, 14].

[3] = system: SH-SY5Y human neuroblastoma cells; experiment: Dose-response cell viability screening, MTT reduction assay; type: cell-based; details: for cytotoxicity on SH-SY5Y cell line: 10 μM to 100 μM, 24 h, at the active concentrations; for highest non-toxic concentration (selected concentration): SH-SY5Y cells exposed for 25 h
Experimental: as §1, §2
Figure 10 Dose-response screening of compounds 1, 2, 4 and 5 on SH-SY5Y neuronal cell line. Overnight cultures were treated with a range of concentrations from 10 μM to 100 μM for 24 h and cellular viability was determined by employing the MTT reduction assay.

Compound	protection against Aβ1-42-induced toxicity [1]	Antioxidant Activity EC50 [2]	inhibition at 40 µM (Aβ1-42)	cytotoxicity on SH-SY5Y cell line [3]	highest non-toxic concentration (selected concentration) [3]
CCOC(=O)C1=C(O)C(C(C)C)NC1=O (stereo not shown) [Compound 1, Ethyl 4-hydroxy-5-isopropyl-2-oxo-2,5-dihydro-1H-pyrrole-3-carboxylate]	do not confer protection	10.8 ± 0.2 µmol/µmol of DPPH	36.6%	do not show (except for compound 4) cytotoxicity	75 µM
CCOC(=O)C1=C(O)C(Cc2ccccc2)NC1=O (stereo not shown) [Compound 2, Ethyl 5-benzyl-4-hydroxy-2-oxo-2,5-dihydro-1H-pyrrole-3-carboxylate]	do not confer protection	6.3 ± 0.1 µmol/µmol of DPPH	28.2%	do not show (except for compound 4) cytotoxicity	75 µM
